The test system of one data set is HepG2 cells. To be noted: HepG2 cells incubated with 10 μM; cited from earlier work.
Data set [1] is described as follows: Cytotoxicity assay in Vero cells. In kind it is cell-based. To be noted: African green monkey, figure in parentheses not defined. How it is done:
(§1) The toxicity of the compounds was assessed in Vero, human PBM, CEM (human lymphoblastoid), MT-2, and HepG2 cells, as described previously (see Schinazi R. F., Sommadossi J.-P., Saalmann V., Cannon D. L., Xie M.-Y., Hart G. C., Smith G. A. & Hahn E. F. Antimicrob. Agents Chemother. 1990, 34, 1061-67). Cycloheximide was included as positive cytotoxic control, and untreated cells exposed to solvent were included as negative controls. The cytotoxicity IC50 was obtained from the concentration-response curve using the median effective method described previously (see Chou T.-C. & Talalay P. Adv. Enzyme Regul. 1984, 22, 27-55; Belen'kii M. S. & Schinazi R. F. Antiviral Res. 1994, 25, 1-11).

The nature of data set [2]: Cytotoxicity assay in CEM cells. In kind it is cell-based. Conditions: human, CEM (human lymphoblastoid) cells. The procedure: as §1
Data set [3] in a line: Cytotoxicity assay in PBM cells. In kind it is cell-based. To be noted: human, figure in parentheses not defined. How it is done: as §1
Data set [4] concerns HCV replicon RNA in Huh 7 Clone B cells. The experiment in a line: HCV replicon assay (replicon RNA by real time RT-PCR). In kind it is cell-based. Conditions: for HCV Ct: single replicates. How it is done:
(§2) Following five days incubation (37° C., 5% CO2), total cellular RNA was isolated by using versaGene RNA purification kit from Gentra. Replicon RNA and an internal control (TaqMan rRNA control reagents, Applied Biosystems) were amplified in a single step multiplex Real Time RT-PCR Assay. The antiviral effectiveness of the compounds was calculated by subtracting the threshold RT-PCR cycle of the test compound from the threshold RT-PCR cycle of the no-drug control (ΔCt HCV). A ΔCt of 3.3 equals a 1-log reduction (equal to 90% less starting material) in Replicon RNA levels. The cytotoxicity of the compounds was also calculated by using the ΔCt rRNA values. (2′-Me-C) was used as the control. To determine EC90 and IC50 values^2, ΔCt: values were first converted into fraction of starting material^3 and then were used to calculate the % inhibition. […]
(In general: In antiviral work, replicon cells carry a viral genome segment that copies itself.)

A short description of data set [5]: HCV replicon assay, cytotoxicity from rRNA Ct values. Type of data set: cell-based. Conditions: human, Huh 7 Clone B cells containing HCV replicon RNA; from rRNA, Huh 7 Clone B cells. The procedure: as §2
The subject of data set [6] is Huh 7 Clone B cells (rRNA). Described as above. In kind it is cell-based. To be noted: for rRNA Ct: single replicates. How it is done:
as §2

Setting [7] is: Hepatitis C virus, Huh-7, 120 h, HCV replicon, five days incubation.

Data on three molecules can be found in patent US9040479B2, “HCV NS3 protease inhibitors” (RFS Pharma, LLC, priority 2012, dated 2015).

Where “and” joins values, the source holds several entries; their conditions need not be identical. Equal entries are not always repeated. Bounds are passed on as bounds.

Consider `O=c1[nH]c(=O)n([C@@H]2O[C@H](CO)[C@@H](O)[C@@H]2F)cc1I` [fialuridine, 1,2′-deoxy-2′-fluoro-1-D-arabinofuranosly-5-iodo-uracil], for which, in the data set on HepG2 cells, the “morphological changes in mitochondria (electron micrographs)” value is “enlarged mitochondria with morphological changes consistent with mitochondrial dysfunction”.

In general, IC50 refers to the point on the concentration scale where inhibition reaches its midpoint. Consider `C=C[C@@H]1C[C@]1(NC(=O)[C@@H]1C[C@@H](OC(=O)N2Cc3cccc(F)c3C2)CN1C(=O)[C@@H](NC(=O)C(C)(C)C(F)(F)F)C(C)(C)C)C(=O)NS(=O)(=O)C1CC1` [drawing 11], for which the IC50 is no less than 100 µM in data set [1], 85.1 µM in data set [2] and greater than 100 µM in data set [3].

The EC50 is the concentration at which the effect is half-maximal. A low value points to higher potency in that assay. The term EC90 denotes the concentration needed for an effect of 90%. Read a low EC90 as an effect from little substance. As usually defined, the CC50 is the concentration at which the toxic effect on the cells reaches its halfway point. Read a low CC50 as greater toxicity to the cells. Consider `C=C[C@@H]1C[C@]1(NC(=O)[C@@H]1C[C@@H](OC(=O)N2Cc3cccc(F)c3C2)CN1C(=O)[C@@H](NC(=O)C(C)(C)C(F)(F)F)C(C)(C)C)C(=O)NS(=O)(=O)C1CC1` [drawing 12], for which the “% Inhit (HCV)” value in data set [4] (3 nM) is reported as −33.8%; in data set [4] (10 nM), 91.7%; in data set [4] (33 nM), 98.0%; in data set [4] (100 nM) it was 99.4%. Besides, the “DCt HCV” value in data set [4] (3 nM) is recorded as −0.4; in data set [4] (10 nM), 3.6; in data set [4] (33 nM), 5.7; in data set [4] (100 nM) it was 7.3. For the same molecule, the “HCV Ct Average” value was 22.8 in data set [4] (3 nM), 26.8 in data set [4] (10 nM), 28.9 in data set [4] (33 nM) and 30.5 in data set [4] (100 nM). The “HCV Ct” value in data set [4] (3 nM) is 22.6 (2×) and 23.2; in data set [4] (10 nM) it was 27.0 and 26.9 and 26.6; in data set [4] (33 nM) it was 29.2 and 29.1 and 28.4; in data set [4] (100 nM), 30.3 and 30.5 and 30.8. Further, the midpoint of the response in data set [4] (setting [7]), the EC50, lay at 7.7 nM. For the same molecule, in data set [4] (setting [7]), the EC90 amounted to 9.9 nM. Moreover, the cytotoxic concentration (CC50) at 5 days in data set [5] was greater than 100 nM. For the same molecule, the “DCt rRNA” value in data set [6] (3 nM) is −0.8; in data set [6] (10 nM) it was −0.9; in data set [6] (33 nM), −0.8; in data set [6] (100 nM), −1.0. Also, the “rRNA Ct Average” value is given as 19.2 in data set [6] (3 nM), 19.0 in data set [6] (10 nM), 19.1 in data set [6] (33 nM) and 19.0 in data set [6] (100 nM). For the same molecule, the “rRNA Ct” value in data set [6] (3 nM) is 19.2 and 19.3 and 18.9; in data set [6] (10 nM) it was 19.2 and 18.9 and 19.0; in data set [6] (33 nM) it was 19.2 (2×) and 19.1; in data set [6] (100 nM), 19.0 and 18.8 and 19.2. Besides, the inhibition at 0.003 µM in data set [6] (Homo sapiens, Huh-7, 3 nM, read-out: % inhib. rRNA) is -74.8%. Further, the inhibition at 0.01 µM in data set [6] (Homo sapiens, Huh-7, 10 nM, read-out: % inhib. rRNA) is -89.1%. Further, the inhibition at 0.033 µM in data set [6] (Homo sapiens, Huh-7, 33 nM, read-out: % inhib. rRNA) is -75.6%. In addition, the inhibition at 0.1 µM in data set [6] (Homo sapiens, Huh-7, 100 nM, read-out: % inhib. rRNA) was -95.2%.
